In patent publication US9834558B2, “Substituted bridged urea analogs as sirtuin modulators” (GLAXOSMITHKLINE LLC, priority 2013, dated 2017):
Where a name gives a salt, the structure may show the parent alone. Read-outs that look alike come from different tables or passages of the source.

Molecular target: T1, SIRT1 (Homo sapiens, UniProt Q96EB6)
T1 sequence (Q96EB6 1-747): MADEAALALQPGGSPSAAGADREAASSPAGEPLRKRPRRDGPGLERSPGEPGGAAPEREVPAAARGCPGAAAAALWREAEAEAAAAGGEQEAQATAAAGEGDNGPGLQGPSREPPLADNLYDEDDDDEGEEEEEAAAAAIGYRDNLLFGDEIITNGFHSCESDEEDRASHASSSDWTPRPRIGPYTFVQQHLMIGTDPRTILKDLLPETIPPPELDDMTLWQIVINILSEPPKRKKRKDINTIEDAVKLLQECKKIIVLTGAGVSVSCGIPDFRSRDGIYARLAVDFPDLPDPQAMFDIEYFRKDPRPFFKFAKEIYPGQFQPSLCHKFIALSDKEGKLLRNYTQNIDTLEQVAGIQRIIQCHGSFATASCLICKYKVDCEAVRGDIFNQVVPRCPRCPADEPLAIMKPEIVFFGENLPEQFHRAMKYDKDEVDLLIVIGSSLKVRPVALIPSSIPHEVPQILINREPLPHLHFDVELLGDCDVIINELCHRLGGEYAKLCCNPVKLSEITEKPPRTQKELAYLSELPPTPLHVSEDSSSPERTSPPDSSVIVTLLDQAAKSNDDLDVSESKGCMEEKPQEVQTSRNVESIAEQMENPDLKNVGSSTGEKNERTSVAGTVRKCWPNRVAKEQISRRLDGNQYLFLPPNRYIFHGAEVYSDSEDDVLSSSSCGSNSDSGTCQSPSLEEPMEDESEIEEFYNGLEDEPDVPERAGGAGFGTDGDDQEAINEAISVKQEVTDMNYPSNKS
Assay: Trp mass spectrometry assay of SIRT1 activation
Format: biochemical
Conditions: for TRP Activity (EC1.5): EC1.5 = concentration that results in 150% activation of SIRT1
Procedure, shortened: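 N-terminal His-tagged human SIRT1 (10 nM, E. coli BL21(DE3)) with 0.5 μM Ac-RHKK(Ac)W-NH2 peptide and 120 μM βNAD+, 25 min at 25 °C in HEPES pH 7.5, formic acid stop. OAADPR or deacetylated peptide quantified by mass spectrometry; EC1.5 (50% activity increase over control) and Percent Maximum Activation reported.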

[1] = Trp peptide assay, maximum activity relative to control (100%), read-out: TRP MAX RESP (percent maximum fold activation)
[2] = Trp mass spectrometry assay, EC1.5 = concentration of test compound that results in 150% activation of SIRT1
[3] = concentration giving 150% activation of SIRT1, Trp peptide substrate
[4] = Trp mass spectrometry assay, concentration of test compound giving 150% activation of SIRT1

| Structure (SMILES) | TRP Activity (EC1.5) (Trp peptide assay) | Emax [1] [%] | Tryp AVG EC1.5 (μM) [2] | further results |
| --- | --- | --- | --- | --- |
| COC(=O)CNC(=O)c1ccc2c(n1)N(C(=O)Nc1ccccn1)[C@H]1CCN2C1 [methyl 2-{[(9S)-8-[(pyridin-2-yl)carbamoyl]-1,6,8-triazatricyclo[7.2.1.0^{2,7}]dodeca-2(7),3,5-trien-5-yl]formamido}acetate] | B (B (EC1.5 1-25 μM)) | > 150 | – | – |
| O=C(CCCCCNC(=O)c1ccc(-c2c3ccc(=O)cc-3oc3cc(O)ccc23)c(C(=O)O)c1)NCc1ccc(NC(=O)N2c3nc(-c4cccc(C(F)(F)F)c4)ccc3N3CC[C@H]2C3)cc1 [Example 547] | – | – | C (C (EC1.5>25 μM)) | – |
| CCCCC(=O)c1cccc(NC(=O)N2c3nc(-c4cccc(C(F)(F)F)c4)ccc3N3CC[C@H]2C3)c1 [Example 737] | – | – | – | Tryp AVG EC1.5 (μM) [3]: A (A (EC1.5<1 μM)) |
| Cc1cc(-c2ccc3c(n2)N(C(=O)N2CCO[C@H](C)C2)[C@H]2CCN3C2)ccn1 [(9S)-8-{[(2R)-2-methylmorpholin-4-yl]carbonyl}-5-(2-methylpyridin-4-yl)-1,6,8-triazatricyclo[7.2.1.0 {2,7}]dodeca-2(7),3,5-triene hydrochloride] | C (C (EC1.5>25 μM)) | < 150 | – | – |
| O=C(NCCCc1ccncc1)N1c2nc(-c3cccc(C(F)(F)F)c3)ccc2N2CC[C@H]1C2 [Example 633] | – | – | – | Tryp AVG EC1.5 (μM) [3]: B (B (EC1.5 1-25 μM)) |
| O=C(O[C@@H]1CN2C[C@H]1N(C(=O)Nc1ccccn1)c1nc(-c3cccc(C(F)(F)F)c3)ccc12)c1ccccc1 [Example 603] | – | – | C (C (EC1.5>25 μM)) | – |
| O=C(Nc1cccnc1)N1c2nc(-c3cccc(C(F)(F)F)c3)ccc2N2CCC[C@H]1C2 [314 (5)] | – | – | – | Tryp AVG EC1.5 (μM) [4]: A (A (EC1.5<1 μM)) |
| O=C(Nc1cnccn1)N1c2nc(-c3ccc(CO)nc3)ccc2N2CC[C@H]1C2 [(9S)-5-[6-(hydroxymethyl)pyridin-3-yl]-N-(pyrazin-2-yl)-1,6,8-triazatricyclo[7.2.1.0 {2,7}]dodeca-2(7),3,5-triene-8-carboxamide] | B (B (EC1.5 1-25 μM)) | > 150 | – | – |
| Cc1cc(-c2ccc3c(n2)N(C(=O)Nc2cn(C)nn2)[C@H]2CCN3C2)ccn1 [(9S)-N-(1-methyl-1H-1,2,3-triazol-4-yl)-5-(2-methylpyridin-4-yl)-1,6,8-triazatricyclo[7.2.1.0^{2,7}]dodeca-2(7),3,5-triene-8-carboxamide] | B (B (EC1.5 1-25 μM)) | > 150 | – | – |
| O=C(Nc1ccccn1)N1c2nc(N3CCC[C@H](C(F)(F)F)C3)ccc2N2CC[C@H]1C2 [(9S)-N-(pyridin-2-yl)-5-[(3S)-3-(trifluoromethyl)piperidin-1-yl]-1,6,8-triazatricyclo[7.2.1.0 {2,7}]dodeca-2,4,6-triene-8-carboxamide] | B (B (EC1.5 1-25 μM)) | > 150 | – | – |
| O=C(Nc1ccccn1)N1c2nc(N3CCC[C@H](C(F)(F)F)C3)ccc2N2CCC[C@H]1C2 [drawing 1118, (9S)-N-(pyridin-2-yl)-5-[(3S)-3-(trifluoromethyl)piperidin-1-yl]-1,6,8-triazatricyclo[7.3.1.0 {2,7}]trideca-2(7),3,5-triene-8-carboxamide] | A (A (EC1.5<1 μM)) | – | – | TRP MAX RESP (percent maximum fold activation) (Trp peptide assay, maximum activity relative to control (100%)): A (A (Fold activation ≧150%)) |
| N#Cc1cc(-c2ccc3c(n2)N(C(=O)Nc2cnccn2)[C@H]2CCN3C2)ccc1F [Example 419] | – | – | A (A (EC1.5<1 μM)) | – |
| O=C(Nc1ccncn1)N1c2nc(-c3cccc(Cl)c3)ccc2N2CCC1CC2 [Example 534] | – | – | B (B (EC1.5 1-25 μM)) | – |
| Cc1cc(-c2ccc3c(n2)N(C(=O)Nc2cc4cn[nH]c4cn2)[C@H]2CCN3C2)ccn1 [(9S)-5-(2-methylpyridin-4-yl)-N-{1H-pyrazolo[3,4-c]pyridin-5-yl}-1,6,8-triazatricyclo[7.2.1.0 {2,7}]dodeca-2(7),3,5-triene-8-carboxamide] | A (A (EC1.5<1 μM)) | > 150 | – | – |
| O=C(CCCC[C@@H]1SC[C@@H]2NC(=O)N[C@@H]21)NCCCCCC(=O)NCc1cn(-c2cccc(NC(=O)N3c4nc(-c5cccc(C(F)(F)F)c5)ccc4N4CC[C@H]3C4)c2)nn1 [Example 607] | – | – | A (A (EC1.5<1 μM)) | Emax (Trp mass spectrometry assay, percent maximum fold activation of SIRT1, read-out: Tryp % Fold Act): > 150% |
| O=C(Nc1ccccn1)N1c2nc(-c3cncc(C(F)(F)F)c3)ccc2N2C[C@@H](O)[C@H]1C2 [Example 694] | – | – | – | Tryp AVG EC1.5 (μM) [3]: A (A (EC1.5<1 μM)) |
| O=C(Nc1ccc2[nH]ncc2c1)N1c2nc(-c3cccc(C(F)(F)F)c3)ccc2N2CC[C@H]1C2 [Example 666] | – | – | – | Tryp AVG EC1.5 (μM) [3]: A (A (EC1.5<1 μM)) |
| CC(C)(C)OC(=O)NCc1cn(-c2cccc(NC(=O)N3c4nc(-c5cccc(C(F)(F)F)c5)ccc4N4CC[C@H]3C4)c2)nn1 [Example 605] | – | – | A (A (EC1.5<1 μM)) | – |
| Cc1ncc(-c2ccc3c(n2)N(C(=O)Nc2cnccn2)[C@H]2CCN3C2)cc1F [(9S)-5-(5-fluoro-6-methylpyridin-3-yl)-N-(pyrazin-2-yl)-1,6,8-triazatricyclo[7.2.1.0 {2,7}]dodeca-2(7),3,5-triene-8-carboxamide] | B (B (EC1.5 1-25 μM)) | > 150 | – | – |
| O=C(NCCCCn1ccnc1)N1c2nc(-c3cccc(C(F)(F)F)c3)ccc2N2CC[C@H]1C2 [Example 689] | – | – | – | Tryp AVG EC1.5 (μM) [3]: B (B (EC1.5 1-25 μM)) |
| Cn1cc(-c2ccc3c(n2)N(C(=O)Nc2cnccn2)[C@H]2CCN3C2)cn1 [(9S)-5-(1-methyl-1H-pyrazol-4-yl)-N-(pyrazin-2-yl)-1,6,8-triazatricyclo[7.2.1.0 {2,7}]dodeca-2(7),3,5-triene-8-carboxamide] | B (B (EC1.5 1-25 μM)) | > 150 | – | – |
| Cc1ncc(-c2ccc3c(n2)N(C(=O)Nc2cnccn2)[C@H]2CCN3C2)cn1 [(9S)-5-(2-methylpyrimidin-5-yl)-N-(pyrazin-2-yl)-1,6,8-triazatricyclo[7.2.1.0 {2,7}]dodeca-2(7),3,5-triene-8-carboxamide] | B (B (EC1.5 1-25 μM)) | > 150 | – | – |
| O=C(NCCCCc1ccccc1)N1c2nc(-c3cccc(C(F)(F)F)c3)ccc2N2CC[C@H]1C2 [Example 600] | – | – | B (B (EC1.5 1-25 μM)) | – |
| Cc1cc(-c2ccc3c(n2)N(C(=O)Nc2cnc(OC[C@@H](O)CO)cn2)[C@H]2CCN3C2)ccn1 [Example 561] | – | – | B (B (EC1.5 1-25 μM)) | – |
| O=C(Nc1ccccn1)N1c2nc(N3CCC[C@@H]3C(F)(F)F)ccc2N2CC[C@H]1C2 [(9S)-N-(pyridin-2-yl)-5-[(2R)-2-(trifluoromethyl)pyrrolidin-1-yl]-1,6,8-triazatricyclo[7.2.1.0 {2,7}]dodeca-2(7),3,5-triene-8-carboxamide] | A (A (EC1.5<1 μM)) | > 150 | – | – |
| O=C(Nc1ccncn1)N1c2nc(-c3cccc(C(F)(F)F)n3)ccc2N2CC[C@H]1C2 [Example 337] | – | – | – | Tryp AVG EC1.5 (μM) [4]: B (B (EC1.5 1-25 μM)) |
| Cc1cncc(-c2ccc3c(n2)N(C(=O)Nc2cnccn2)[C@H]2CCN3C2)c1 [(9S)-5-(5-methylpyridin-3-yl)-N-(pyrazin-2-yl)-1,6,8-triazatricyclo[7.2.1.0 {2,7}]dodeca-2(7),3,5-triene-8-carboxamide] | B (B (EC1.5 1-25 μM)) | > 150 | – | – |
| O=C(Nc1nnc(-c2cccnc2)o1)N1c2nc(-c3cccc(C(F)(F)F)c3)ccc2N2CC[C@H]1C2 [Example 721] | – | – | – | Tryp AVG EC1.5 (μM) [3]: A (A (EC1.5<1 μM)) |
| CCNC(=O)c1ccc2c(n1)N(C(=O)Nc1ccccn1)[C@H]1CCN2C1 [(9S)-5-N-ethyl-8-N-(pyridin-2-yl)-1,6,8-triazatricyclo[7.2.1.0 {2,7}]dodeca-2(7),3,5-triene-5,8-dicarboxamide] | A (A (EC1.5<1 μM)) | > 150 | – | – |
| O=C(Nc1cccnc1)N1c2nc(-c3cccc(N4CCOCC4)c3)ccc2N2CCC[C@H]1C2 [Example 538] | – | – | A (A (EC1.5<1 μM)) | – |
